Laboratory results from patent US4740233A, “Substituted 1,2,4-triazolo[1,5-a]-pyrimidine-2-sulfonamides and compositions and methods of controlling undesired vegetation and suppressing the nitrification of ammonium nitrogen in soil” (The Dow Chemical Company, priority 1986, dated 1988).

Columns and labels:
[1] = test system: rape; experiment: Postemergent control of plant species; type: in vivo, Brassica napus; conditions: Brassica napus, post-emergence, 336 h, read-out: percent postemergent control
Method in brief: (§1)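 Compounds in acetone mixed 1:1 with water containing 0.1% surfactant, sprayed postemergence on greenhouse plants at the 2-4 leaf stage. Growth reduction versus untreated plants of the same species scored after about two weeks.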

[2] = test system: soybean; experiment: Postemergent control of plant species; type: in vivo, Glycine max.; conditions: Glycine max, post-emergence, 336 h, read-out: percent postemergent control
Method in brief: as §1

[3] = test system: cocklebur; experiment: Postemergent control of plant species; type: in vivo, Xanthium spp.; conditions: Xanthium strumarium, post-emergence, 336 h, read-out: percent postemergent control
Method in brief: as §1

[4] = test system: pigweed; experiment: Postemergent control of plant species; type: in vivo, Amaranthus spp.; conditions: Amaranthus retroflexus, post-emergence, 336 h, read-out: percent postemergent control
Method in brief: as §1

[5] = test system: velvetleaf; experiment: Postemergent control of plant species; type: in vivo, Abutilon theophrasti; conditions: Abutilon theophrasti, post-emergence, 336 h, read-out: percent postemergent control
Method in brief: as §1

[6] = test system: rice; experiment: Postemergent control of plant species; type: in vivo, Oryza sativa; conditions: Oryza sativa, post-emergence, 336 h, read-out: percent postemergent control
Method in brief: as §1

[7] = test system: wheat; experiment: Postemergent control of plant species; type: in vivo, Triticum aestivum; conditions: Triticum aestivum, post-emergence, 336 h, read-out: percent postemergent control
Method in brief: as §1

[8] = test system: barnyardgrass; experiment: Postemergent control of plant species; type: in vivo, Echinochloa crusgalli; conditions: Echinochloa crus-galli, post-emergence, 336 h, read-out: percent postemergent control
Method in brief: as §1

[9] = test system: crabgrass; experiment: Postemergent control of plant species; type: in vivo, Digitaria spp.; conditions: Digitaria sanguinalis, post-emergence, 336 h, read-out: percent postemergent control
Method in brief: as §1

[10] = test system: yellow foxtail; experiment: Postemergent control of plant species; type: in vivo, Setaria lutescens; conditions: Setaria, post-emergence, 336 h, read-out: percent postemergent control
Method in brief: as §1

[11] = test system: johnson grass; experiment: Postemergent control of plant species; type: in vivo, Sorghum halepense; conditions: Sorghum halepense, post-emergence, 336 h, read-out: percent postemergent control
Method in brief: as §1

[12] = test system: wild oats; experiment: Postemergent control of plant species; type: in vivo, Avena fatua; conditions: Avena fatua, post-emergence, 336 h, read-out: percent postemergent control
Method in brief: as §1

[13] = test system: cotton; experiment: Preemergent control of plant species; type: in vivo, Gossypium spp.; conditions: Gossypium hirsutum, pre-emergence, 336 h; 0.25 lb/acre; read-out: percent preemergent control
Method in brief: (§2)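 Seeds sown in agricultural soil in greenhouse beds, then aqueous-emulsion compositions applied uniformly to the bed surface at listed rates. Beds kept two weeks under greenhouse growth conditions with watering. Control expressed as growth reduction versus water-treated beds of the same species.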

[14] = test system: sugar beet; experiment: Preemergent control of plant species; type: in vivo, Beta saccharifera; conditions: Beta vulgaris, pre-emergence, 336 h; 0.25 lb/acre; read-out: percent preemergent control
Method in brief: as §2

[15] = test system: jimsonweed; experiment: Preemergent control of plant species; type: in vivo, Datura stramonium; conditions: Datura stramonium, pre-emergence, 336 h; 0.25 lb/acre; read-out: percent preemergent control
Method in brief: as §2

[16] = test system: annual morning glory; experiment: Preemergent control of plant species; type: in vivo, Ipomoea spp.; conditions: Ipomoea, pre-emergence, 336 h; 0.25 lb/acre; read-out: percent preemergent control
Method in brief: as §2

[17] = test system: corn; experiment: Preemergent control of plant species; type: in vivo, Zea mays; conditions: Zea mays, pre-emergence, 336 h; 0.25 lb/acre; read-out: percent preemergent control
Method in brief: as §2

[18] = test system: rice; experiment: Preemergent control of plant species; type: in vivo, Oryza sativa; conditions: Oryza sativa, pre-emergence, 336 h; 0.25 lb/acre; read-out: percent preemergent control
Method in brief: as §2

[19] = test system: wheat; experiment: Preemergent control of plant species; type: in vivo, Triticum aestivum; conditions: Triticum aestivum, pre-emergence, 336 h; 0.25 lb/acre; read-out: percent preemergent control
Method in brief: as §2

[20] = test system: barnyardgrass; experiment: Preemergent control of plant species; type: in vivo, Echinochloa crusgalli; conditions: Echinochloa crus-galli, pre-emergence, 336 h; 0.25 lb/acre; read-out: percent preemergent control
Method in brief: as §2

[21] = test system: wild oats; experiment: Preemergent control of plant species; type: in vivo; conditions: Avena fatua, pre-emergence, 336 h; 0.25 lb/acre; read-out: percent preemergent control
Method in brief: as §2

[22] = test system: yellow foxtail; experiment: Preemergent control of plant species; type: in vivo, Setaria lutescens; conditions: Setaria, pre-emergence, 336 h; 0.25 lb/acre; read-out: percent preemergent control
Method in brief: as §2

[23] = test system: yellow nutsedge; experiment: Preemergent control of plant species; type: in vivo, Cyperus esculentus; conditions: Cyperus, pre-emergence, 336 h; 0.25 lb/acre; read-out: percent preemergent control
Method in brief: as §2

[24] = test system: nitrification of ammonium nitrogen; experiment: Suppression of nitrification of ammonium nitrogen in soil; conditions: 27° C.
Method in brief: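 Soil (20 g) moistened to its 1/3 bar tension value, mixed with test chemical and incubated sealed for two weeks at 27° C. Nitrate extracted with ammonium sulfate solution and measured by nitrate-specific ion electrode; value given as % NH4-N remaining.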

Cc1cc(C)n2nc(S(=O)(=O)Nc3ccc(Cl)cc3C(F)(F)F)nc2n1 [Compound 34]
plant injury at 500 ppm [1]: 100% | plant injury at 500 ppm [2]: 90% | pest or weed control at 500 ppm [3]: 100% | pest or weed control at 500 ppm [4]: 100% | pest or weed control at 500 ppm [5]: 100% | plant injury at 500 ppm [6]: 0% | plant injury at 500 ppm [7]: 0% | pest or weed control at 500 ppm [8]: 0% | pest or weed control at 500 ppm [9]: 0% | pest or weed control at 500 ppm [10]: 0% | pest or weed control at 500 ppm [11]: 20% | pest or weed control at 500 ppm [12]: 0% | plant injury at 280.212 g/ha [13]: 80% | plant injury at 280.212 g/ha [14]: 90% | pest or weed control at 280.212 g/ha [15]: 0% | pest or weed control at 280.212 g/ha [16]: 20% | plant injury at 280.212 g/ha [17]: 0% | plant injury at 280.212 g/ha [18]: 40% | plant injury at 280.212 g/ha [19]: 0% | pest or weed control at 280.212 g/ha [20]: 20% | pest or weed control at 280.212 g/ha [21]: 0% | pest or weed control at 280.212 g/ha [22]: 0% | pest or weed control at 280.212 g/ha [23]: 70% | % NH4-N Remaining After 2 Weeks Incubation ([24]; 0.01 ppm): 11% | % NH4-N Remaining After 2 Weeks Incubation ([24]; 0.1 ppm): 51% | % NH4-N Remaining After 2 Weeks Incubation ([24]; 1 ppm): 78% | % NH4-N Remaining After 2 Weeks Incubation ([24]; 10 ppm): 90%
